Like-named read-outs stand apart in the source and are kept apart here.
Test system: ulcer
Test: Anti-ulcer test (restraint and water immersion ulcer in rats, i.p.)
Format: in vivo, Male Wistar rats
Details: Rattus norvegicus, ip, read-out: % Inhibition of Ulcer
In short: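 Compound given intraperitoneally in saline to 24 h-fasted male Wistar rats about 150 g, followed after one hour by 6 h restraint with water immersion at 21 °C. Gastric lesions graded 0, 0.5, 1, 2 or 3 on microscopic inspection and converted to percent ulcer inhibition.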

Row | Compound | inhibition in vivo at 50 mg/kg (50 mg/kg i.p.) | other results
1 | COC(C(=O)NC(CC(C)C)C1Cc2cccc(OC(=O)C(C)C)c2C(=O)O1)C(O)C(CC(N)=O)NC(C)=O (stereo not shown) [VII-36-1] |  | inhibition in vivo at 25 mg/kg (25 mg/kg i.p.): 66%
2 | CNC(=O)C=CC(O)C(O)C(=O)NC(CC(C)C)C1Cc2cccc(O)c2C(=O)O1 (stereo not shown) [VIII-1-1] | 56% | 
3 | CCCCCNC(=O)C=CC(O)C(O)C(=O)NC(CC(C)C)C1Cc2cccc(O)c2C(=O)O1 (stereo not shown) [VIII-1-2] | 56% | 
4 | CCCCCCCCCCCCCCCCCCNC(=O)C=CC(O)C(O)C(=O)NC(CC(C)C)C1Cc2cccc(O)c2C(=O)O1 (stereo not shown) [VIII-1-3] | 44% | 
5 | CC(C)CC(NC(=O)C(O)C(O)C=CC(=O)NCc1cccc(Cl)c1)C1Cc2cccc(O)c2C(=O)O1 (stereo not shown) [VIII-1-4] | 44% | 
6 | CC(C)CC(NC(=O)C(O)C(O)C=CC(=O)NCC1CCCCC1)C1Cc2cccc(O)c2C(=O)O1 (stereo not shown) [VIII-1-5] | 44% | 
7 | CCCC=Cc1ccc(CN=C(NC(CC(C)C)C2Cc3cccc(O)c3C(=O)O2)C(O)C(O)C(N)CC(=O)O)cc1 (stereo not shown) [Vb-1-40] | 89% | 
8 | CC(C)CC(NC(=NC(C)C)C(O)C(O)C(N)CC(=O)O)C1Cc2cccc(O)c2C(=O)O1 (stereo not shown) [Vb-1-41] |  | inhibition in vivo at 50 mg/kg: 89%
9 | Cc1ccc(N=C(NC(CC(C)C)C2Cc3cccc(O)c3C(=O)O2)C(O)C(O)C(N)CC(=O)O)cc1 (stereo not shown) [Vb-1-42] | 83% | 
10 | CCN1CCCC(N=C(NC(CC(C)C)C2Cc3cccc(O)c3C(=O)O2)C(O)C(O)C(N)CC(=O)O)C1 (stereo not shown) [Vb-1-43] | 83% | 
11 | CC(C)CC(NC(=NCCN1CCOCC1)C(O)C(O)C(N)CC(=O)O)C1Cc2cccc(O)c2C(=O)O1 (stereo not shown) [Vb-1-44] | 94% | 
12 | CC(C)CC(NC(=NCCN1CCCCC1)C(O)C(O)C(N)CC(=O)O)C1Cc2cccc(O)c2C(=O)O1 (stereo not shown) [Vb-1-45] | 94% | 
13 | CCC(=O)OC(C(=N)NC(CC(C)C)C1Cc2cccc(O)c2C(=O)O1)C(O)C(N)CC(=O)O (stereo not shown) [Vb-2-1] | 66% | 
14 | CC(C)CC(NC(=N)C(OC(=O)CCC1CCCC1)C(O)C(N)CC(=O)O)C1Cc2cccc(O)c2C(=O)O1 (stereo not shown) [Vb-2-2] | 56% | 
15 | C/C=C/C(=O)OC(C(=N)NC(CC(C)C)C1Cc2cccc(O)c2C(=O)O1)C(O)C(N)CC(=O)O (stereo not shown) [Vb-2-3] | 66% | 
16 | CC(=O)Oc1cccc2c1C(=O)OC(C(CC(C)C)NC(=N)C(OC(=O)C(C)C)C(O)C(N)CC(=O)O)C2 (stereo not shown) [Vb-3-1] | 56% | 
17 | CC(C)CC(NC(=N)C(O)C(O)C(N)CC(=O)O)C1Cc2cccc(OC(=O)C(C)C)c2C(=O)O1 (stereo not shown) [Vb-4-1] | 78% | 

Row | Compound | inhibition in vivo at 50 mg/kg (50 mg/kg i.p.) | other results
18 | CCCCCCCCCCCCCCCCCC(=O)Oc1cccc2c1C(=O)OC(C(CC(C)C)NC(=N)C(O)C(O)C(N)CC(=O)O)C2 (stereo not shown) [Vb-4-2] | 56% | 
19 | COC(C)CC(=O)Oc1cccc2c1C(=O)OC(C(CC(C)C)NC(=N)C(O)C(O)C(N)CC(=O)O)C2 (stereo not shown) [Vb-4-3] | 66% | 
20 | CCOc1cccc2c1C(=O)OC(C(CC(C)C)NC(=N)C(O)C(O)C(N)CC(=O)O)C2 (stereo not shown) [Vb-5-1] | 94% | 
21 | CCCCN=C(NC(CC(C)C)C1Cc2cccc(OCC)c2C(=O)O1)C(O)C(O)C(N)CC(=O)O (stereo not shown) [Vb-5-2] | 89% | 
22 | CCOc1cccc2c1C(=O)OC(C(CC(C)C)NC(=N)C(OC(C)=O)C(O)C(N)CC(=O)O)C2 (stereo not shown) [Vb-6-1] | 66% | 
23 | CCOc1cccc2c1C(=O)OC(C(CC(C)C)NC(=N)C(OC(=O)C(C)C)C(O)C(N)CC(=O)O)C2 (stereo not shown) [Vb-6-2] | 66% | 
24 | CCOc1cccc2c1C(=O)OC(C(CC(C)C)NC(=N)C(OC(=O)CC)C(O)C(N)CC(=O)O)C2 (stereo not shown) [Vb-6-3] | 66% | 
25 | CCCCOC(C(=N)NC(CC(C)C)C1Cc2cccc(OC)c2C(=O)O1)C(O)C(N)CC(=O)O (stereo not shown) [Vb-7-1] | 72% | 
26 | CCCCOc1cccc2c1C(=O)OC(C(CC(C)C)NC(=N)C(OCCCC)C(O)C(N)CC(=O)O)C2 (stereo not shown) [Vb-7-2] | 66% | 
27 | CCCCOC(C(=N)NC(CC(C)C)C1Cc2cccc(OCc3ccccc3)c2C(=O)O1)C(O)C(N)CC(=O)O (stereo not shown) [Vb-7-3] | 56% | 
28 | COC(C(=N)NC(CC(C)C)C1Cc2cccc(O)c2C(=O)O1)C(O)C(N)CC(=O)O (stereo not shown) [Vb-8-1] | 78% | 
29 | CCOC(C(=N)NC(CC(C)C)C1Cc2cccc(O)c2C(=O)O1)C(O)C(N)CC(=O)O (stereo not shown) [Vb-8-3] | 78% | 
30 | COC(C(=N)NC(CC(C)C)C1Cc2cccc(OC(C)=O)c2C(=O)O1)C(O)C(N)CC(=O)O (stereo not shown) [Vb-9-1] | 66% | 
31 | CCCC(=O)Oc1cccc2c1C(=O)OC(C(CC(C)C)NC(=N)C(OCC)C(O)C(N)CC(=O)O)C2 (stereo not shown) [Vb-9-2] | 66% | 
32 | CCOC(C(=N)NC(CC(C)C)C1Cc2cccc(OCCC(C)OC)c2C(=O)O1)C(O)C(N)CC(=O)O (stereo not shown) [Vb-9-3] | 66% | 
33 | CCNC(CC(=O)O)C(O)C(O)C(=N)NC(CC(C)C)C1Cc2cccc(O)c2C(=O)O1 (stereo not shown) [Vb-10-1] | 94% | 
34 | CCCCNC(CC(=O)O)C(O)C(O)C(=N)NC(CC(C)C)C1Cc2cccc(O)c2C(=O)O1 (stereo not shown) [Vb-10-2] | 100% | 

Source: US4393225A, “AI-77 Compounds and pharmaceutically acceptable salts thereof” (Asahi Kasei Kogyo Kabushiki Kaisha, priority 1979, dated 1983)
